{"source": "patent US20050171057A1", "about": "“Pantoprazole cyclodextrin inclusion complexes” (ALTANA PHARMA AG, priority 2002, published 2005)", "key": {"[1]": {"assay": "Complexation (phase solubility) study of pantoprazole with βCD and HPβCD in phosphate buffer pH 7", "assay_type": "physicochemical", "details": "in the presence of βCD (up to 1.8% p/v), phosphate buffer pH 7, maximum", "procedure": "Methods: Various solutions of the different cyclodextrins taken into consideration were prepared in phosphate buffer solution pH 7 at known concentrations and used to create saturated solutions of pantoprazole. After equilibration, these saturated solutions were filtered through MF™ membrane filters (pore size 0.45 μm), appropriately diluted with phosphate buffer solution and subjected to uv/vis spectrophotometric analysis. The cyclodextrin solutions prepared with phosphate buffer ranged from concentrations of 0% p/v up to 1.8% p/v for βCD, 20% p/v for HPβCD."}, "[2]": {"assay": "Phase-solubility studies of PNTH with β-CD, HPβ-CD and SBβ-CD in phosphate buffer pH 7", "assay_type": "physicochemical", "details": "for solubility: thermodynamic from solid; for increase of apparent solubility versus phosphate buffer alone: phosphate buffer pH 7", "procedure": "The Solubility of PNTH in Phosphate Buffer Solution at pH 7 was Determined Using a Previously Constructed Asorbance vs. Concentration Calibration Curve.\nA known amount of PNTH was suspended in cyclodextrin solutions of different concentrations ranging from; 0 to 1.8% (p/v) for β-CD, 0 to 20% (p/v) for H-Pβ-CD and 0 to 15% (p/v) for SB-β-CD. The resulting suspension was filtered using a PTFE 0.45μ filter, adequately diluted and then subjected to UV spectrophotometric analysis. The concentration of PNTH in the corresponding sample was then calculated referring to the relevant PNTH calibration curve.\nUV-VIS spectra were recorded on a Jasco V570 Spectrophoto meter."}}, "note": "Read-outs that look alike come from different tables or passages of the source."}
{"smiles": "COc1ccnc(C[S+]([O-])c2nc3ccc(OC(F)F)cc3[nH]2)c1OC", "note": "(centres unmarked) [pantoprazole, 5-difluoromethoxy-2-[(3,4-dimethoxy-2-pyridinyl)methylsulfinyl]-1H-benzimidazole]", "values": [{"measurement": "increase of solubility with respect to solubility in phosphate buffer", "setting": "[1]", "result": "four"}, {"measurement": "solubility", "setting": "[2]; aqueous buffer, phosphate buffer solution pH 7, no cyclodextrin, read-out: solubility in phosphate buffer alone", "result": 0.56, "unit": "mM"}, {"measurement": "solubility", "setting": "[2]; aqueous with cosolvent or surfactant or cyclodextrin, solutions of HPβ-CD (0 to 20% p/v) in phosphate buffer pH 7, maximum reached, read-out: apparent solubility with HPβ-CD", "result": 17.8, "unit": "mM"}, {"measurement": "solubility", "setting": "[2]; aqueous with cosolvent or surfactant or cyclodextrin, solutions of SBβ-CD (0 to 15% p/v) in phosphate buffer pH 7, maximum reached, read-out: apparent solubility with SBβ-CD", "result": 9.3, "unit": "mM"}, {"measurement": "solubility", "setting": "[2]; aqueous with cosolvent or surfactant or cyclodextrin, solutions of β-CD (0 to 1.8% p/v) in phosphate buffer pH 7, maximum reached, read-out: apparent solubility with β-CD", "result": 2.25, "unit": "mM"}, {"measurement": "increase of apparent solubility versus phosphate buffer alone", "setting": "[2]; solutions of HPβ-CD (0 to 20% p/v)", "result": 36, "unit": "times"}, {"measurement": "increase of apparent solubility versus phosphate buffer alone", "setting": "[2]; solutions of SBβ-CD (0 to 15% p/v)", "result": "twenty"}, {"measurement": "increase of apparent solubility versus phosphate buffer alone", "setting": "[2]; solutions of β-CD (0 to 1.8% p/v)", "result": "four"}]}
